According to US10112926B2 (priority 2014, dated 2018):
Counter-ions that a name gives are not always drawn.

Columns and labels:
Vps34 = Vps34 (Homo sapiens (Human), UniProt Q8NEB9); details: read-out: Assay C VPS34 IC50
PI 4-kinase beta = PI 4-kinase beta (Homo sapiens (Human), UniProt Q9UBF8); details: read-out: Assay D PI4Kβ IC50
Sequence of PI 4-kinase beta (Q9UBF8 whole entry): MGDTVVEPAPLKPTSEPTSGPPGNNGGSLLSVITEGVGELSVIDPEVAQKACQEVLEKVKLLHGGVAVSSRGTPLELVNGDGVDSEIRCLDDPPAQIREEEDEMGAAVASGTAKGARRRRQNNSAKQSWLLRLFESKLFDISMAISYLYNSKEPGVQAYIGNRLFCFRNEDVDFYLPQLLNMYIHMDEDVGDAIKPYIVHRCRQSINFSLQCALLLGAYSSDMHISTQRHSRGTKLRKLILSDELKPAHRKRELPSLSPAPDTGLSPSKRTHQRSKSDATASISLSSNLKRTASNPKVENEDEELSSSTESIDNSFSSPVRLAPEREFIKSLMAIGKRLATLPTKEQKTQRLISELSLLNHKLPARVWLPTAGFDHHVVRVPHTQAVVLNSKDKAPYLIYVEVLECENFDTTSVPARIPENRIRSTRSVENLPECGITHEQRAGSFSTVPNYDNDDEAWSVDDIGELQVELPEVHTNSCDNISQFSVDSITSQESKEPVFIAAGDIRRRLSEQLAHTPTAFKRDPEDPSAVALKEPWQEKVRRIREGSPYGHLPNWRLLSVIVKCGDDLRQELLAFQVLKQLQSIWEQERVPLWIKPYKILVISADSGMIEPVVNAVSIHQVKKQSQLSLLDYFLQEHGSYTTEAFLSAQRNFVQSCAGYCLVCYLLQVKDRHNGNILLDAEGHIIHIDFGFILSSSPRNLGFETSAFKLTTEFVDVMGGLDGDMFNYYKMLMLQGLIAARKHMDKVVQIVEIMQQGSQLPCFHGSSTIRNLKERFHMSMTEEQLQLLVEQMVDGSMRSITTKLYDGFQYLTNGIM

Sequence of Vps34 (Q8NEB9 whole entry): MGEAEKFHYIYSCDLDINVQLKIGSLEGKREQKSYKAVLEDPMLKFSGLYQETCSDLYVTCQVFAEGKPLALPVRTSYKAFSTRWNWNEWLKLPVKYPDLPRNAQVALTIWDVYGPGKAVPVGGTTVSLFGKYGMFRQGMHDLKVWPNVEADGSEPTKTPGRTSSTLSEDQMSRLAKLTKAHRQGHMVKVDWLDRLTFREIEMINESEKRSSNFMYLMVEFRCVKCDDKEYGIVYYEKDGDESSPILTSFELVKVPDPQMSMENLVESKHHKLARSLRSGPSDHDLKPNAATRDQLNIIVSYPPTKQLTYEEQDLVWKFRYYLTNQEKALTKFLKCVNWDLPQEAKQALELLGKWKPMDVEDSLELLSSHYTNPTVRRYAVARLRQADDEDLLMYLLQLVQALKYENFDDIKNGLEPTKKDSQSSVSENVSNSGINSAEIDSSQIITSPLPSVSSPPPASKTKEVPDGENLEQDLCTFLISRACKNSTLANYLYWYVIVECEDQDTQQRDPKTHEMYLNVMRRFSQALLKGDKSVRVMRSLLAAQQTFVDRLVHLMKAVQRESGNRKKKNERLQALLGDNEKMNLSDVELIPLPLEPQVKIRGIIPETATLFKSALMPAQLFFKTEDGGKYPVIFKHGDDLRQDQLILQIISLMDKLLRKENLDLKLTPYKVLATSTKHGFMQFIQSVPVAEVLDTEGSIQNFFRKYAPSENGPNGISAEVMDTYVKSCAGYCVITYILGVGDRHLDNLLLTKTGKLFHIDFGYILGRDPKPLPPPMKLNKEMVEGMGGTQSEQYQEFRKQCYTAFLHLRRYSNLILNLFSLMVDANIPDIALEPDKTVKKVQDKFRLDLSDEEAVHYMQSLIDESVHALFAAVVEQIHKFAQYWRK

| SMILES | IC50 (Vps34) | IC50 (PI 4-kinase beta) |
| --- | --- | --- |
| Cc1ccc(S(=O)(=O)NCCC(C)(C)O)cc1-c1cnc(N)c(-c2cnn(CC(F)(F)F)c2)c1 [Example 3, 3-(6-Amino-5-(1-(2,2,2-trifluoroethyl)-1H-pyrazol-4-yl)pyridin-3-yl)-N-(3-hydroxy-3-methylbutyl)-4-methylbenzenesulfonamide] | > 9.1 µM | 1.08 µM |
| Cc1noc(-c2cc(-c3cc(S(=O)(=O)NCC(C)(C)O)ccc3C)cnc2N)n1 [Example 10, 3-(6-Amino-5-(3-methyl-1,2,4-oxadiazol-5-yl)pyridin-3-yl)-N-(2-hydroxy-2-methylpropyl)-4-methylbenzenesulfonamide, hydrochloride salt] | > 9.8 µM | > 9.8 µM |
| Cc1cc(-c2cc(-c3cc(S(=O)(=O)NC4CCOC4=O)ccc3C)cnc2N)on1 (centres unmarked) [Example 19.2, 3-(6-amino-5-(3-methylisoxazol-5-yl)pyridin-3-yl)-4-methyl-N-(2-oxotetrahydrofuran-3-yl)benzene sulfonamide trifluoroacetic acid salt] | > 10 µM | 3.7 µM |
| Cc1cc(-c2cc(-c3cc(S(=O)(=O)NCCC4CCOCC4)ccc3C)cnc2N)on1 [Example 19.12, 3-(6-amino-5-(3-methylisoxazol-5-yl)pyridin-3-yl)-4-methyl-N-(2-(tetrahydro-2H-pyran-4-yl)ethyl)benzenesulfon-amide trifluoroacetic acid salt] | > 10 µM | 4.3 µM |
| Cc1cc(-c2cc(-c3cc(S(=O)(=O)N[C@@H](C)C4CC4)ccc3C)cnc2N)on1 [Example 19.13, (S)-3-(6-amino-5-(3-methylisoxazol-5-yl)pyridin-3-yl)-N-(1-cyclopropylethyl)-4-methylbenzenesulfon-amide trifluoroacetic acid salt] | > 10 µM | 1.6 µM |
| Cc1cc(-c2cc(-c3cc(S(=O)(=O)N[C@H]4CCC[C@H](O)C4)ccc3C)cnc2N)on1 [Example 19.16, 3-(6-amino-5-(3-methylisoxazol-5-yl)pyridin-3-yl)-N-((1S,3S)-3-hydroxycyclohexyl)-4-methylbenzenesulfon-amide trifluoroacetic acid salt] | > 10 µM | 1.5 µM |
| Cc1cc(-c2cc(-c3cc(S(=O)(=O)NCC4COC4)ccc3C)cnc2N)on1 [Example 25, 3-(6-Amino-5-(3-methylisoxazol-5-yl)pyridin-3-yl)-4-methyl-N-(oxetan-3-ylmethyl)benzenesulfonamide] | > 10 µM | 1.3 µM |
| Cc1cc(-c2cc(-c3cc(S(=O)(=O)NC4CC4)ccc3C)cnc2N)on1 [Example 31, 3-(6-Amino-5-(3-methylisoxazol-5-yl)pyridin-3-yl)-N-cyclopropyl-4-methylbenzenesulfonamide] | > 10 µM | 1.26 µM |
| Cc1ncc(-c2cc(-c3cc(S(N)(=O)=O)ccc3C)cnc2N)o1 [Example 33, 3-(6-Amino-5-(2-methyloxazol-5-yl)pyridin-3-yl)-4-methylbenzenesulfonamide] | 3.9 µM | 4.45 µM |
| Cc1ccc(S(=O)(=O)N[C@H]2CC[C@H](O)CC2)cc1-c1cnc(N)c(-c2cc(C(C)(C)C)no2)c1 [Example 35.2, trans-3-(6-Amino-5-(3-(tert-butyl)isoxazol-5-yl)pyridin-3-yl)-N-(−4-hydroxycyclohexyl)-4-methylbenzenesulfonamide hydrochloride] | > 10 µM | 0.63 µM |
| Cc1ccc(S(=O)(=O)NCC(C)(C)O)cc1-c1cnc(N)c(-c2cc(C3CC3)no2)c1 [Example 35.3, 3-(6-Amino-5-(3-cyclopropylisoxazol-5-yl)pyridin-3-yl)-N-(2-hydroxy-2-methylpropyl)-4-methylbenzenesulfonamide hydrochloride] | > 10 µM | 1.3 µM |
| Cc1cc(-c2cc(-c3cc(S(=O)(=O)N[C@@H]4CCNC(=O)C4)ccc3C)cnc2N)on1 [Example 37.4, (R)-3-(6-Amino-5-(3-methylisoxazol-5-yl)pyridin-3-yl)-4-methyl-N-(2-oxopiperidin-4-yl)benzenesulfonamide] | > 10 µM | 2.4 µM |
| Cc1cc(-c2cc(-c3cc(S(=O)(=O)NCC4(CO)CCC4)ccc3C)cnc2N)on1 [Example 37.6, 3-(6-Amino-5-(3-methylisoxazol-5-yl)pyridin-3-yl)-N-((1-(hydroxymethyl)cyclobutyl)methyl)-4-methylbenzenesulfonamide] | > 10 µM | 2.2 µM |
| Cc1noc(-c2cc(-c3cc(S(=O)(=O)NCC4(CO)CCOCC4)ccc3C)cnc2N)n1 [Example 37.10, 3-(6-Amino-5-(3-methyl-1,2,4-oxadiazol-5-yl)pyridin-3-yl)-N-((4-(hydroxymethyl)tetrahydro-2H-pyran-4-yl)methyl)-4-methylbenzenesulfonamide] | > 10 µM | > 10 µM |
| Cc1cc(-c2cc(-c3cc(S(=O)(=O)N4CC(CO)C4)ccc3C)cnc2N)on1 [Example 37.12, (1-((3-(6-Amino-5-(3-methylisoxazol-5-yl)pyridin-3-yl)-4-methylphenyl)sulfonyl)azetidin-3-yl)methanol] | > 10 µM | 3.4 µM |
| Cc1noc(-c2cc(-c3cc(S(=O)(=O)NC4CC(F)(F)C4)ccc3C)cnc2N)n1 [Example 37.17, 3-(6-Amino-5-(3-methyl-1,2,4-oxadiazol-5-yl)pyridin-3-yl)-N-(3,3-difluorocyclobutyl)-4-methylbenzenesulfonamide] | > 10 µM | 8.6 µM |

| SMILES | IC50 (Vps34) | IC50 (PI 4-kinase beta) |
| --- | --- | --- |
| Cc1noc(-c2cc(-c3cc(S(=O)(=O)NCC4(O)CC4)ccc3C)cnc2N)n1 [Example 37.19, 3-(6-Amino-5-(3-methyl-1,2,4-oxadiazol-5-yl)pyridin-3-yl)-N-((1-hydroxycyclopropyl)methyl)-4-methylbenzenesulfonamide] | > 10 µM | 8.6 µM |
| Cc1noc(-c2cc(-c3cc(S(=O)(=O)NCCC4(O)CCCCC4)ccc3C)cnc2N)n1 [Example 37.31, 3-(6-Amino-5-(3-methyl-1,2,4-oxadiazol-5-yl)pyridin-3-yl)-N-(2-(1-hydroxycyclohexyl)ethyl)-4-methylbenzenesulfonamide] | > 10 µM | 6.2 µM |
| Cc1cc(-c2cc(-c3cc(S(=O)(=O)NC[C@@H]4CCOC4)ccc3C)cnc2N)on1 [Example 38, (S)-3-(6-Amino-5-(3-methylisoxazol-5-yl)pyridin-3-yl)-4-methyl-N-((tetrahydrofuran-3-yl)methyl)benzenesulfonamide] | > 10 µM | 3.1 µM |
| Cc1noc(-c2cc(-c3cc(S(=O)(=O)NCC4(O)CCOCC4)ccc3C)cnc2N)n1 [Example 51, 3-(6-Amino-5-(3-methyl-1,2,4-oxadiazol-5-yl)pyridin-3-yl)-N-((4-hydroxytetrahydro-2H-pyran-4-yl)methyl)-4-methylbenzenesulfonamide] | > 10 µM | > 10 µM |
| Cc1noc(-c2cc(-c3cc(S(=O)(=O)NCC4(CO)COC4)ccc3C)cnc2N)n1 [Example 52, 3-(6-Amino-5-(3-methyl-1,2,4-oxadiazol-5-yl)pyridin-3-yl)-N-((3-(hydroxymethyl)oxetan-3-yl)methyl)-4-methylbenzenesulfonamide] | > 10 µM | > 10 µM |
| Cc1noc(-c2cc(-c3cc(S(=O)(=O)NO[C@H]4C[C@H](O)C4)ccc3C)cnc2N)n1 [Example 55, trans-3-(6-Amino-5-(3-methyl-1,2,4-oxadiazol-5-yl)pyridin-3-yl)-N-(3-hydroxycyclobutoxy)-4-methylbenzenesulfonamide] | > 10 µM | 4.7 µM |
| Cc1noc(-c2cc(-c3cc(S(=O)(=O)NCC4(O)COC4)ccc3C)cnc2N)n1 [Example 56, 3-(6-Amino-5-(3-methyl-1,2,4-oxadiazol-5-yl)pyridin-3-yl)-N-((3-hydroxyoxetan-3-yl)methyl)-4-methylbenzenesulfonamide] | > 10 µM | > 10 µM |
| Cc1nc(-c2cc(-c3cc(S(=O)(=O)NCC(C)(C)O)ccc3C)cnc2N)cs1 [Example 59, 3-(6-Amino-5-(2-methylthiazol-4-yl)pyridin-3-yl)-N-(2-hydroxy-2-methylpropyl)-4-methylbenzenesulfonamide] | > 10 µM | > 10 µM |
| Cc1ccc(S(=O)(=O)NCC(C)(C)O)cc1-c1cnc(N)c(-c2cn(C)nn2)c1 [Example 63, 3-(6-Amino-5-(1-methyl-1H-1,2,3-triazol-4-yl)pyridin-3-yl)-N-(2-hydroxy-2-methylpropyl)-4-methylbenzenesulfonamide hydrochloride] | > 10 µM | 9.6 µM |
| Cc1ncc(-c2cc(-c3cc(S(=O)(=O)NCC4(C)COC4)ccc3C)cnc2N)o1 [Example 69, 3-(6-Amino-5-(2-methyloxazol-5-yl)pyridin-3-yl)-4-methyl-N-((3-methyloxetan-3-yl)methyl)benzenesulfonamide] | 4.4 µM | 2.4 µM |
| Cc1cccc(NS(=O)(=O)c2ccc(C)c(-c3cnc(N)c(-c4nc(C)no4)c3)c2)n1 [Example 72, 3-(6-Amino-5-(3-methyl-1,2,4-oxadiazol-5-yl)pyridin-3-yl)-4-methyl-N-(6-methylpyridin-2-yl)benzenesulfonamide] | > 10 µM | > 10 µM |
| Cc1ncc(-c2cc(-c3cc(S(N)(=O)=O)ccc3C)cnc2N)s1 [Example 74, 3-(6-Amino-5-(2-methylthiazol-5-yl)pyridin-3-yl)-4-methylbenzenesulfonamide] | 2.2 µM | 5 µM |
| Cc1ncc(-c2cc(-c3cc(S(=O)(=O)NCC(C)(C)CO)ccc3C)cnc2N)o1 [Example 104.2, 3-(6-amino-5-(2-methyloxazol-5-yl)pyridin-3-yl)-N-(3-hydroxy-2,2-dimethylpropyl)-4-methylbenzenesulfon-amide] | – | 1.1 µM |
| Cc1ncc(-c2cc(-c3cc(S(=O)(=O)NCCO)ccc3C)cnc2N)o1 [Example 104.5, 3-(6-amino-5-(2-methyloxazol-5-yl)pyridin-3-yl)-N-(2-hydroxyethyl)-4-methylbenzenesulfon-amide] | – | 3.1 µM |
| Cc1ncc(-c2cc(-c3cc(S(=O)(=O)NCC4CC4)ccc3C)cnc2N)o1 [Example 104.12, 3-(6-amino-5-(2-methyloxazol-5-yl)pyridin-3-yl)-N-(cyclopropylmethyl)-4-methylbenzenesulfon-amide] | – | 2.1 µM |
